Data on 21 compounds can be found in US8618154B2, “LXR modulators” (Bristol-Myers Squibb Company, priority 2009, dated 2013).

Read-outs that look alike come from different tables or passages of the source. Some results are limits rather than exact numbers.

The subject of this test is ABCA1 gene expression. Nature of the test: Human whole blood assay (hWBA), ABCA1 mRNA induction. Type of test: cell-based. The following applies: for Emax: read-out: hWBA hABCA1 L30 Max P (%). Here is the method:
Human whole blood was collected in EDTA containing tubes and 0.5 mL aliquots were immediately mixed in a 96 well block with the appropriate serial dilution of test compound, in 0.5% DMSO. Compounds were incubated with blood at 37° C. with constant rocking for 4 hours. After incubation, cells were lysed in ABI Nucleic Acid Purification Lysis Solution (Applied Biosystems catalog #4305895) and frozen at −80° C. Following cell lysis, total RNA was purified using an ABI 6100 RNA prep station according to the protocol provided by the manufacturer. cDNAs were synthesized, and mRNAs were quantitated using SYBR-Green Quantitative PCR (Q-PCR) on an ABI Prism 7900HT Sequence Detection System and reagents from Quanta Bioscience Inc (Quanta Bioscience catalog #95047 and 95055).
The quantity of each mRNA was determined by the ΔΔCT method (Michael W. Pfaffl. A new mathematical model for relative quantification in real-time RT-PCR. Nucleic Acids Research, 2001, Vol. 29, No. 9 e45) and normalized to the quantity of two control mRNAs, i.e. ribosomal protein L-30 (L-30) and beta-2-microglobulin (B2M). The induction of ABCA1 and ABCG1 by test compound was graphed as a percent of the reference compound, 2-(4-(5-(5-cyano-1-(2,4-difluorobenzyl)-6-oxo-4-(trifluoromethyl)-1,6-dihydropyridin-2-yl)thiophen-2-yl)-3-methylphenyl)acetic acid, and potency (EC50) and activity (% MAX) were calculated by fitting a sigmoidal response curve as a function of log transformed compound concentration using XLFit software according to the equation y=A+((B−A)/(1+((C/x)^D))).

Setting [1] is: Homo sapiens, 4 h, percent of reference pan agonist (maximal activity defined as 100%).
[2] abbreviates: human whole blood, 4 hours, ABCA1 mRNA normalized to L30, read-out: hWBA hABCA1 L30 EC50.

As to `CC(C)(O)c1cn(-c2ccc(-c3cccc(S(C)(=O)=O)c3)cc2)c(C(C)(C)c2ccccc2Cl)n1` [Compound No. 19, Table 1, WO 2007/002563, reference compound], the Emax under setting [1] turned out to be 55%. The EC50 under setting [2] is more than 1000 nM.

With `CC(C)(O)c1cn(-c2ccc(-c3cc(F)c(CO)c(S(C)(=O)=O)c3)cc2)c(C(C)(C)c2ccccc2F)n1` [Example 1, 2-(1-(3′-fluoro-4′-(hydroxymethyl)-5′-(methylsulfonyl)biphenyl-4-yl)-2-(2-(2-fluorophenyl)propan-2-yl)-1H-imidazol-4-yl)propan-2-ol], the Emax under setting [1] was found to be 28%. In addition, the EC50 under setting [2] was less than 100 nM.

As to `Cc1cc(-c2cc(F)c(CO)c(S(C)(=O)=O)c2)ccc1-n1cc(C(C)(C)O)nc1C(C)(C)c1c(F)cccc1Cl` [Example 2, 2-(2-(2-(2-chloro-6-fluorophenyl)propan-2-yl)-1-(3′-fluoro-4′-(hydroxymethyl)-3-methyl-5′-(methylsulfonyl)biphenyl-4-yl)-1H-imidazol-4-yl)propan-2-ol], the Emax under setting [1] was found to be 18%. In addition, the concentration giving a half-maximal response (EC50) under setting [2] is less than 100 nM.

On to `CC(C)(O)c1cn(-c2ccc(-c3cc(F)c(CO)c(S(C)(=O)=O)c3)cc2Cl)c(C(C)(C)c2c(Cl)cccc2Cl)n1` [Example 3, 2-(1-(3-chloro-3′-fluoro-4′-(hydroxymethyl)-5′-(methylsulfonyl)biphenyl-4-yl)-2-(2-(2,6-dichlorophenyl)propan-2-yl)-1H-imidazol-4-yl)propan-2-ol], for which, under setting [1], the Emax amounted to 16%. Besides, the EC50 under setting [2] was less than 100 nM.

As to `CC(C)(O)c1cn(-c2ccc(-c3cc(F)c(CO)c(S(C)(=O)=O)c3)cc2)c(C(C)(C)c2cccc(F)c2Cl)n1` [Example 4, 2-(2-(2-(2-chloro-3-fluorophenyl)propan-2-yl)-1-(3′-fluoro-4′-(hydroxymethyl)-5′-(methylsulfonyl)biphenyl-4-yl)-1H-imidazol-4-yl)propan-2-ol], the Emax under setting [1] was determined as 34%. Besides, under setting [2], the EC50 is less than 100 nM.

Consider `CC(C)(O)c1cn(-c2ccc(-c3cc(F)c(CO)c(S(C)(=O)=O)c3)cc2)c(C(C)(C)c2c(Cl)cccc2Cl)n1` [Example 5, 2-(2-(2-(2,6-dichlorophenyl)propan-2-yl)-1-(3′-fluoro-4′-(hydroxymethyl)-5′-(methylsulfonyl)biphenyl-4-yl)-1H-imidazol-4-yl)propan-2-ol], for which, under setting [1], the Emax was 43%. Moreover, the EC50 under setting [2] was less than 100 nM.

With `CC(C)(O)c1cn(-c2ccc(-c3cc(F)c(CO)c(S(C)(=O)=O)c3)cc2F)c(C(C)(C)c2ccccc2Cl)n1` [Example 6, 2-(2-(2-(2-Chloro-phenyl)propan-2-yl)-1-(3,3′-difluoro-4′-hydroxymethyl-5′-(methylsulfonyl)biphenyl-4-yl)-1H-imidazol-4-yl)-propan-2-ol], the Emax under setting [1] stood at 35%. The EC50 under setting [2] was less than 100 nM.

As for `CC(C)(O)c1cn(-c2ccc(-c3cc(F)c(CO)c(S(C)(=O)=O)c3)cc2F)c(C(C)(C)c2c(F)cccc2Cl)n1` [Example 7, 2-(2-(2-(2-chloro-6-fluorophenyl)propan-2-yl)-1-(3,3′-difluoro-4′-(hydroxymethyl)-5′-(methylsulfonyl)biphenyl-4-yl)-1H-imidazol-4-yl)propan-2-ol], under setting [1], the Emax was 33%. Moreover, the EC50 under setting [2] is less than 100 nM.

As for `CC(C)(O)c1cn(-c2ccc(-c3cc(F)c(CO)c(S(C)(=O)=O)c3)cc2F)c(C(C)(C)c2ccccc2F)n1` [Example 8, 2-{1-(3,3′-Difluoro-4′-hydroxymethyl-5′-methanesulfonyl-biphenyl-4-yl)-2-[2-(2-fluorophenyl)propan-2-yl]-1H-imidazol-4-yl}-propan-2-ol], the Emax under setting [1] stood at 23%. In addition, the EC50 under setting [2] is less than 100 nM.

In the case of `CC(C)(O)c1cn(-c2ccc(-c3cc(F)c(CO)c(S(C)(=O)=O)c3)cc2F)c(C(C)(C)c2c(Cl)cccc2Cl)n1` [Example 9, 2-(2-(2-(2,6-dichlorophenyl)propan-2-yl)-1-(3,3′-difluoro-4′-(hydroxymethyl)-5′-(methylsulfonyl)biphenyl-4-yl)-1H-imidazol-4-yl)propan-2-ol], under setting [1], the Emax was 28%. Further, the EC50 under setting [2] is less than 100 nM.

Consider `CC(C)(O)c1cn(-c2ccc(-c3cc(F)c(CO)c(S(C)(=O)=O)c3)cc2F)c(Cc2ccc(Cl)cc2Cl)n1` [Example 11, 2-(2-(2,4-dichlorobenzyl)-1-(3,3′-difluoro-4′-(hydroxymethyl)-5′-(methylsulfonyl)biphenyl-4-yl)-1H-imidazol-4-yl)propan-2-ol], for which the Emax under setting [1] stood at 16%. In addition, under setting [2], the EC50 is less than 100 nM.

For `CC(C)(O)c1cn(-c2ccc(-c3cc(F)c(CO)c(S(C)(=O)=O)c3)cc2F)c(Cc2ccccc2C(F)(F)F)n1` [Example 12, 2-(1-(3,3′-difluoro-4′-(hydroxymethyl)-5′-(methylsulfonyl)biphenyl-4-yl)-2-(2-(trifluoromethyl)benzyl)-1H-imidazol-4-yl)propan-2-ol], under setting [1], the Emax is 32%. The EC50 under setting [2] was less than 100 nM.

For `CC(C)(O)c1cn(-c2ccc(-c3cc(F)c(CO)c(S(C)(=O)=O)c3)cc2Cl)c(Cc2ccc(F)cc2Cl)n1` [Example 13, 2-(1-(3-chloro-3′-fluoro-4′-(hydroxymethyl)-5′-(methylsulfonyl)biphenyl-4-yl)-2-(2-chloro-4-fluorobenzyl)-1H-imidazol-4-yl)propan-2-ol], under setting [1], the Emax was determined as 50%. The EC50 under setting [2] is less than 100 nM.

On to `CC(C)(O)c1cn(-c2ccc(-c3cc(F)c(CO)c(S(C)(=O)=O)c3)cc2F)c(Cc2ccc(F)cc2Cl)n1` [Example 14, 2-(2-(2-chloro-4-fluorobenzyl)-1-(3,3′-difluoro-4′-(hydroxymethyl)-5′-(methylsulfonyl)biphenyl-4-yl)-1H-imidazol-4-yl)propan-2-ol], for which the Emax under setting [1] was 24%. For the same compound, under setting [2], the EC50 was less than 100 nM.

As to `CC(C)(O)c1cn(-c2ccc(-c3cc(F)c(CO)c(S(C)(=O)=O)c3)cc2)c(Cc2ccc(Cl)cc2Cl)n1` [Example 15, 2-(2-(2,4-dichlorobenzyl)-1-(3′-fluoro-4′-(hydroxymethyl)-5′-(methylsulfonyl)biphenyl-4-yl)-1H-imidazol-4-yl)propan-2-ol], under setting [1], the Emax was 47%. Besides, the concentration giving a half-maximal response (EC50) under setting [2] was less than 100 nM.

As for `CC(C)(O)c1cn(-c2ccc(-c3cc(F)c(CO)c(S(C)(=O)=O)c3)cc2F)c(Cc2ccccc2F)n1` [Example 16, 2-(1-(3,3′-difluoro-4′-(hydroxymethyl)-5′-(methylsulfonyl)biphenyl-4-yl)-2-(2-fluorobenzyl)-1H-imidazol-4-yl)propan-2-ol], under setting [1], the Emax stood at 41%. For the same compound, the EC50 under setting [2] was less than 100 nM.

Regarding `Cc1ccccc1Cc1nc(C(C)(C)O)cn1-c1ccc(-c2cc(F)c(CO)c(S(C)(=O)=O)c2)cc1` [Example 17, 2-(1-(3′-fluoro-4′-(hydroxymethyl)-5′-(methylsulfonyl)biphenyl-4-yl)-2-(2-methylbenzyl)-1H-imidazol-4-yl)propan-2-ol], the Emax under setting [1] is 20%. The EC50 under setting [2] is less than 100 nM.

Consider `CC(C)(O)c1cn(-c2ccc(-c3cc(F)c(CO)c(S(C)(=O)=O)c3)cc2)c(Cc2c(Cl)cccc2Cl)n1` [Example 18, 2-(2-(2,6-dichlorobenzyl)-1-(3′-fluoro-4′-(hydroxymethyl)-5′-(methylsulfonyl)biphenyl-4-yl)-1H-imidazol-4-yl)propan-2-ol], for which, under setting [1], the Emax is 51%. The EC50 under setting [2] was less than 100 nM.

Turning to `CC(C)(O)c1cn(-c2ccc(-c3cc(F)c(CO)c(S(C)(=O)=O)c3)cc2)c(Cc2cc(F)ccc2Cl)n1` [Example 19, 2-[2-(2-Chloro-5-fluoro-benzyl)-1-(3′-fluoro-4′-hydroxymethyl-5′-methanesulfonyl-biphenyl-4-yl)-1H-imidazol-4-yl]-propan-2-ol], under setting [1], the Emax was determined as 35%. In addition, the EC50 under setting [2] was less than 100 nM.

For `CC(C)(O)c1cn(-c2ccc(-c3cc(F)c(CO)c(S(C)(=O)=O)c3)cc2F)c(Cc2ccccc2Cl)n1` [Example 20, 2-[2-(2-Chloro-benzyl)-1-(3,3′-difluoro-4′-hydroxymethyl-5′-methanesulfonyl-biphenyl-4-yl)-1H-imidazol-4-yl]-propan-2-ol], the Emax under setting [1] is 35%. Also, the EC50 under setting [2] was less than 100 nM.

In the case of `CC(c1c(Cl)cccc1Cl)c1nc(C(C)(C)O)cn1-c1ccc(-c2cc(F)c(CO)c(S(C)(=O)=O)c2)cc1F` (stereo not drawn) [Example 21, 2-{2-[1-(2,6-dichlorophenyl)ethyl]-1-[3,3′-difluoro-4′-(hydroxymethyl)-5′-(methylsulfonyl)biphenyl-4-yl]-1H-imidazol-4-yl}propan-2-ol], for the setting “Homo sapiens, 4 h, read-out: hWBA hABCA1 L30 EC50 (nM)”, the EC50 is less than 100 nM. Besides, the Emax (Homo sapiens, 4 h) turned out to be 17%.
